Reference: US11771725B2, “Lactobacillus having various functions, and use thereof” (University-Industry Cooperation Group of Kyung Hee …, priority 2015, dated 2023)

Columns and labels:
[1] = tested on: itching behavior induced by compound 48/80; assay: Inhibition of itching induced by compound 48/80; type: in vivo; details: BALB/c mice, 1×10^9 CFU orally once a day for 3 days (control drugs 0.2 mg/mouse)
Protocol: At 1 hour after the last administration of the drug, the mice were allowed to stand in an observation cage (24 cm×22 cm×24 cm) for 10 minutes so as to be acclimated to the environment, and then the back portion of the head was shaved. […] Sigma, USA) by a 29-gauge needle. […] Scratching the injection area with the back foot was regarded as the itching behavior, and scratching other portions was not regarded.

[2] = tested on: vascular permeability induced by compound 48/80; assay: Inhibition of vascular permeability induced by compound 48/80 (Evans blue); type: in vivo; details: BALB/c mice, 1×10^9 CFU orally once a day for 3 days (control drugs 0.2 mg/mouse)
Protocol: It is known that itching-induced areas have increased vascular permeability. […] According to the same method as the above-described experiment for measurement of itching inhibitory activity, the drug was administered to the same mice. Next, physiological saline was injected subcutaneously into the back portion of the head of the mice of the normal group, and an itching inducer (50 μg of compound 48/80; Sigma, USA) was injected subcutaneously into the back portion of the head of the mice of the other test group. Next, 0.2 ml of 1% Evans blue solution (Sigma, USA) was injected into the tail vein, and after 1 hour, the mice were euthanized. The skin of the subcutaneously injected area was dissected, and incubated in 1 ml of 1N KOH at 37° C. overnight. On the next day, the incubated skin tissue was mixed with 4 ml of 0.6N phosphoric acid-acetone (5:13) mixture and centrifuged at 3000 rpm for 15 minutes, and the supernatant was collected and measured for absorbance at 620 nm. Inhibition (%) of vascular permeability was calculated using the following equation: Inhibition(%)={1−[absorbance of area treated with drug and itching inducer−absorbance of area not treated with itching inducer]/[absorbance of area treated with itching inducer−absorbance of area not treated with itching inducer]}×100

[3] = tested on: RBL-2H3 cell line (rat mast cell line); assay: Inhibition of degranulation in IgE-sensitized RBL-2H3 cells; type: cell-based; details: RBL-2H3, lactic acid bacteria 1×10^4 CFU/ml
Protocol: The RBL-2H3 cell line (rat mast cell line, the Korean Cell Line Bank, Cat. No. 22256) was cultured with DMEM (Dulbeccos' modified Eagle's medium, Sigma, 22256) containing 10% FBS (fetal bovine serum) and L-glutamine in a humidified 5% CO2 incubator at 37° C. The cells contained in the culture medium were floated using trypsin-EDTA solution, and the floated cells were isolated, collected and used in the experiment. The collected RBL-2H3 cells were dispensed into a 24-well plate at a density of 5×10^5 cells/well and sensitized by incubation with 0.5 μg/ml of mouse monoclonal IgE for 12 hours. The sensitized cells were washed with 0.5 ml of siraganian buffer (119 mM NaCl, 5 mM KCl, 0.4 mM MgCl2, 25 mM PIPES, 40 mM NaOH, pH 7.2), and then incubated with 0.16 ml of siraganian buffer (supplemented with 5.6 mM glucose, 1 mM CaCl2), 0.1% BSA) at 37° C. for 10 minutes. Next, lactic acid bacteria as a test drug were added to the cell culture to a concentration of 1×10^4 CFU/ml, or 0.04 ml of DSCG (disodium cromoglycate) as a control drug was added to the cell culture, and after 20 minutes, the cells were activated with 0.02 ml of antigen (1 μg/ml DNP-BSA) at 37° C. for 10 minutes. […] Next, the reaction was stopped by addition of 0.2 ml of 0.1M Na2CO3/NaHCO3, and the absorbance at 405 nm was measured by an ELISA analyzer.

Compound | Inhibition (%) Itching [1] [%] | Inhibition (%) vascular permeability [2] [%] | Inhibition (%) Degranulation ([3]; first experiment) [%] | Degranulation inhibition (%) ([3]; second experiment)
CN1CCCC(n2nc(Cc3ccc(Cl)cc3)c3ccccc3c2=O)CC1 (stereo not drawn) [Azelastine] | 65 | 68 |  | 
O=C([O-])c1cc(=O)c2c(OCC(O)COc3cccc4oc(C(=O)[O-])cc(=O)c34)cccc2o1.[Na+].[Na+] [DSCG, disodium cromoglycate] | 25 | 37 | 62 | 62
